From patent publication US11174268B2, “Benzenesulfonamide compouds and their use as therapeutic agents” (Xenon Pharmaceuticals Inc., priority 2016, dated 2021)
Where a name gives a salt, the structure may show the parent alone.

What was measured:
NaV1.1 = NaV1.1 (Homo sapiens (Human), UniProt P35498); experiment: Sodium Influx Assay (Flux), NaV1.1; type: cell-based; conditions: Trex HEK293 cells, ANG2 dye, inactivated state;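 note: channels co-expressed with human β1 subunit and held open by modulators, cells exposed to compounds for one hour at room temperature, IC50 from percent inhibition of influx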
NaV1.6 = NaV1.6 (Homo sapiens (Human), UniProt Q9UQD0); experiment: Sodium Influx Assay (Flux), NaV1.6; type: cell-based; conditions: Trex HEK293 cells, ANG2 dye, inactivated state;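 note: Tetracycline-induced cells, compounds applied for one hour at room temperature with modulators holding channels open, IC50 from percent inhibition of sodium influx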
NaV1.5 = NaV1.5 (Homo sapiens (Human), UniProt Q14524); experiment: Sodium Influx Assay (Flux), NaV1.5; conditions: read-out: Flux NaV1.5 IC50; Trex HEK293 cells, ANG2 dye, inactivated state
Sequence of NaV1.5 (Q14524 other isoform, or with tags, fused parts or gaps): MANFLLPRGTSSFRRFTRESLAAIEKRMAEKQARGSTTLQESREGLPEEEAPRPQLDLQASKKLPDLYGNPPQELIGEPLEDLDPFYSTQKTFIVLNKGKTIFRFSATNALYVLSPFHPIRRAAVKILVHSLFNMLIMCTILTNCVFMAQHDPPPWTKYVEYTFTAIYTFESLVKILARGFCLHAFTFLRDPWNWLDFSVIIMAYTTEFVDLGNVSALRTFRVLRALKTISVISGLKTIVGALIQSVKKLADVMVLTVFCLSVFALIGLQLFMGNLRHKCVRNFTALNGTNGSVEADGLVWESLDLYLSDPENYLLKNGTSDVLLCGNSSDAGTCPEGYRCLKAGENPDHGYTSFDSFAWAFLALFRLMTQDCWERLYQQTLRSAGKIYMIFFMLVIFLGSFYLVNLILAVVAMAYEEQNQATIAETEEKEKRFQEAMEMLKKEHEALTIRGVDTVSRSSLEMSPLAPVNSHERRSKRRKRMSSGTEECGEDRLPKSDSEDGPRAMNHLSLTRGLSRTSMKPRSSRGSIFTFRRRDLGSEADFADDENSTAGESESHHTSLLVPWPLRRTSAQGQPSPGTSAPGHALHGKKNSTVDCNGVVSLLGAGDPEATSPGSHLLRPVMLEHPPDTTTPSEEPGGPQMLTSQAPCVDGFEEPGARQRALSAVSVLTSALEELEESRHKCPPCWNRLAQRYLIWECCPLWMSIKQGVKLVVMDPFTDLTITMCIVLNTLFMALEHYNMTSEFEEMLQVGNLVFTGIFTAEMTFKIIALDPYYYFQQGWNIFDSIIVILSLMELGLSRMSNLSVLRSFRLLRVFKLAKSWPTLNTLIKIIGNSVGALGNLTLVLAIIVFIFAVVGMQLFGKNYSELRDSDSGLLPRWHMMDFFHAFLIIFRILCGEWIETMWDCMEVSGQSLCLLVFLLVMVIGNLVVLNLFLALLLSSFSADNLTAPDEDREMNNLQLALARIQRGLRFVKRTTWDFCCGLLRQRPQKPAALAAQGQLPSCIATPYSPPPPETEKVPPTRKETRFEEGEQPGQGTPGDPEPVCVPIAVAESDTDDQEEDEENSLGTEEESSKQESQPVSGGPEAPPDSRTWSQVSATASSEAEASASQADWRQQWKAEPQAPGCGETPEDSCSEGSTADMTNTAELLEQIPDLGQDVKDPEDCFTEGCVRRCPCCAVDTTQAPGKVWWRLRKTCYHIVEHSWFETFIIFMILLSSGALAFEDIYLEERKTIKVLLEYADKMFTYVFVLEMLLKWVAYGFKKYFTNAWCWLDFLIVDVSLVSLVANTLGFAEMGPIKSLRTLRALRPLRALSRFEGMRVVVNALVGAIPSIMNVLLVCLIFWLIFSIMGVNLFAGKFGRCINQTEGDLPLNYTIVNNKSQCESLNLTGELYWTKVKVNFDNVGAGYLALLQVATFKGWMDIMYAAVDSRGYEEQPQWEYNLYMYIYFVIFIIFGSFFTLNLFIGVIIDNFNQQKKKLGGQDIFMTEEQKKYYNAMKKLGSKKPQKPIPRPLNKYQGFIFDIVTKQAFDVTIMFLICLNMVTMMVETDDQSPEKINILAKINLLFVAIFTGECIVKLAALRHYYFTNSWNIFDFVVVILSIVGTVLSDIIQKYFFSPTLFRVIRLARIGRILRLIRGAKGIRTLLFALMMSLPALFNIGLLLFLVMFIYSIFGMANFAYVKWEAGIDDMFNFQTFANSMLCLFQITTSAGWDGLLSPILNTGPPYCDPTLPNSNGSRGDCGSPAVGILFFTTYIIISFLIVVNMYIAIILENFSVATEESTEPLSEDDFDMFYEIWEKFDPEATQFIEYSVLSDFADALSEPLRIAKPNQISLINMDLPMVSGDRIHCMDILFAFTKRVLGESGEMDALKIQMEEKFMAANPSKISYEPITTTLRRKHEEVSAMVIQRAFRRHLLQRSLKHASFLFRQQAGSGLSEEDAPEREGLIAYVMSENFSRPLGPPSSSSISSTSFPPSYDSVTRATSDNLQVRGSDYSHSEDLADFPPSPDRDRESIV

SMILES | IC50 (NaV1.1) [µM] | IC50 (NaV1.6) [µM] | IC50 (NaV1.5) [µM]
CCC(Nc1cc(F)c(S(=O)(=O)Nc2nccs2)cc1Cl)c1ccncc1 (stereo not drawn) [Example 60, 5-chloro-2-fluoro-4-((1-(pyridin-4-yl)propyl)amino)-N-(thiazol-2-yl)benzenesulfonamide] | 1.57 | 3.34 | 30
O=S(=O)(Nc1nccs1)c1cc(Cl)c(N[C@H](CN2CC(F)C2)c2ccccc2)cc1F [Example 68, (S)-5-chloro-4-((2-(3-fluoroazetidin-1-yl)-1-phenylethyl)amino)-2-fluoro-N-(thiazol-2-yl)benzenesulfonamide 2,2,2-trifluoroacetate] | 5.15 | 1.81 | 25.3
O=S(=O)(Nc1nccs1)c1cc(Cl)c(N[C@H](CN2CC(F)(F)C2)c2ccccc2)cc1F [Example 69, (S)-5-chloro-4-((2-(3,3-difluoroazetidin-1-yl)-1-phenylethyl)amino)-2-fluoro-N-(thiazol-2-yl)benzenesulfonamide] | 3.03 | 1.59 | 7.66
O=S(=O)(Nc1nccs1)c1cc(Cl)c(N[C@@H](CN2CCCC2)c2ccccc2)cc1F [Example 71, (R)-5-chloro-2-fluoro-4-((1-phenyl-2-(pyrrolidin-1-yl)ethyl)amino)-N-(thiazol-2-yl)benzenesulfonamide] | 30 | 30 | 30
O=S(=O)(Nc1nccs1)c1cc(Cl)c(N[C@H](CN2CCOCC2)c2ccccc2)cc1F [Example 75, (S)-5-chloro-2-fluoro-4-((2-morpholino-1-phenylethyl)amino)-N-(thiazol-2-yl)benzenesulfonamide 2,2,2-trifluoroacetate] | 13.6 | 0.261 | 21.7
O=S(=O)(Nc1nccs1)c1ccc(N[C@H]2CCCc3cccnc32)c(Cl)c1 [Example 77, (S)-3-chloro-4-((5,6,7,8-tetrahydroquinolin-8-yl)amino)-N-(thiazol-2-yl)benzenesulfonamide] | 7.98 | 8.08 | 26.1
C[C@H](Nc1ccc(S(=O)(=O)Nc2nccs2)cc1Cl)c1ccccn1 [Example 82, (S)-3-chloro-4-((1-(pyridin-2-yl)ethyl)amino)-N-(thiazol-2-yl)benzenesulfonamide] | 28.7 | 2.16 | 30
CC(Nc1ccc(S(=O)(=O)Nc2nccs2)cc1Cl)c1cnn(C)c1 (stereo not drawn) [Example 83, 3-chloro-4-((1-(1-methyl-1H-pyrazol-4-yl)ethyl)amino)-N-(thiazol-2-yl)benzenesulfonamide] | 11 | 12.3 | 30
C[C@H](Nc1cc(F)c(S(=O)(=O)Nc2cscn2)cc1Cl)c1ccccc1Cl [Example 92, (S)-5-chloro-4-((1-(2-chlorophenyl)ethyl)amino)-2-fluoro-N-(thiazol-4-yl)benzenesulfonamide] | 7.45 | 2.53 | 4.43
O=S(=O)(Nc1nccs1)c1cc(Cl)c(NC2CCCc3ccncc32)cc1F (stereo not drawn) [Example 93, 5-chloro-2-fluoro-4-((5,6,7,8-tetrahydroisoquinolin-8-yl)amino)-N-(thiazol-2-yl)benzenesulfonamide 2,2,2-trifluoroacetate] | 0.314 | 0.27 | 8.47
O=S(=O)(Nc1nccs1)c1cc(Cl)c(NC2CCCc3cnccc32)cc1F (stereo not drawn) [Example 94, 5-chloro-2-fluoro-4-((5,6,7,8-tetrahydroisoquinolin-5-yl)amino)-N-(thiazol-2-yl)benzenesulfonamide 2,2,2-trifluoroacetate] | 0.142 | 0.423 | 8.62

Now from value to molecule, other results behind:

IC50 (NaV1.1) [µM] | IC50 (NaV1.6) [µM] | SMILES | IC50 (NaV1.5) [µM]
8.11 | 0.761 | C[C@H](Oc1cc(F)c(S(=O)(=O)Nc2nccs2)cc1Cl)c1cc(Cl)ccc1F [Example 95, (S)-5-chloro-4-(1-(5-chloro-2-fluorophenyl)ethoxy)-2-fluoro-N-(thiazol-2-yl)benzenesulfonamide] | 30
0.303 | 0.299 | O=S(=O)(Nc1nccs1)c1cc(Cl)c(NC2CCCc3ncccc32)cc1F (stereo not drawn) [Example 98, 5-chloro-2-fluoro-4-((5,6,7,8-tetrahydroquinolin-5-yl)amino)-N-(thiazol-2-yl)benzenesulfonamide formate] | 11
1.94 | 0.373 | O=S(=O)(Nc1nccs1)c1ccc(NC(c2ccccc2)C2CC2)c(Cl)c1 (stereo not drawn) [Example 99, 3-chloro-4-((cyclopropyl(phenyl)methyl)amino)-N-(thiazol-2-yl)benzenesulfonamide] | 9.27
0.667 | 0.216 | O=S(=O)(Nc1nccs1)c1cc(Cl)c(NC(c2ccccc2)C2CC2)cc1F (stereo not drawn) [Example 100, 5-chloro-4-((cyclopropyl(phenyl)methyl)amino)-2-fluoro-N-(thiazol-2-yl)benzenesulfonamide] | 6.42
0.941 | 1.67 | O=S(=O)(Nc1nccs1)c1cc(Cl)c(N[C@@H]2CCCc3ccccc32)cc1F [Example 102, (R)-5-chloro-2-fluoro-4-((1,2,3,4-tetrahydronaphthalen-1-yl)amino)-N-(thiazol-2-yl)benzenesulfonamide] | 5.97
3.7 | 0.533 | O=S(=O)(Nc1nccs1)c1cc(Cl)c(NC2(c3cccc(F)c3)CCC2)cc1F [Example 106, 5-chloro-2-fluoro-4-((1-(3-fluorophenyl)cyclobutyl)amino)-N-(thiazol-2-yl)benzenesulfonamide] | 10.1
21.1 | 14.5 | C[C@H](Oc1cc(F)c(S(=O)(=O)Nc2nccs2)cc1Cl)c1ccc(Cl)c(Cl)c1 [Example 108, (S)-5-chloro-4-(1-(3,4-dichlorophenyl)ethoxy)-2-fluoro-N-(thiazol-2-yl)benzenesulfonamide] | 22.4
1.11 | 0.214 | CC(C)C[C@H](Nc1cc(F)c(S(=O)(=O)Nc2nccs2)cc1Cl)c1ccccc1 [Example 109, (S)-5-chloro-2-fluoro-4-((3-methyl-1-phenylbutyl)amino)-N-(thiazol-2-yl)benzenesulfonamide] | 7.86
3.84 | 1.03 | CC(C)C[C@@H](Nc1cc(F)c(S(=O)(=O)Nc2nccs2)cc1Cl)c1ccccc1 [Example 110, (R)-5-chloro-2-fluoro-4-((3-methyl-1-phenylbutyl)amino)-N-(thiazol-2-yl)benzenesulfonamide] | 3.15
1.39 | 0.352 | CCC[C@H](Nc1cc(F)c(S(=O)(=O)Nc2nccs2)cc1Cl)c1ccccc1 [Example 111, (S)-5-chloro-2-fluoro-4-((1-phenylbutyl)amino)-N-(thiazol-2-yl)benzenesulfonamide] | 8.33
15.9 | 3.18 | C[C@H](Oc1cc(F)c(S(=O)(=O)Nc2cscn2)cc1Cl)c1cccc(F)c1 [Example 118, (S)-5-chloro-2-fluoro-4-(1-(3-fluorophenyl)ethoxy)-N-(thiazol-4-yl)benzenesulfonamide] | 7.5
3.38 | 2.32 | C[C@@H](Oc1cc(F)c(S(=O)(=O)Nc2nccs2)cc1Cl)c1ccccc1F [Example 121, (R)-5-chloro-2-fluoro-4-(1-(2-fluorophenyl)ethoxy)-N-(thiazol-2-yl)benzenesulfonamide] | 2.15
